The values below come from ChEMBL document CHEMBL1201862, “PubChem BioAssay data set” (2004).

Some test systems named below: M14; HOP-62; COLO 205; LOX IMVI; RPMI-8226; U-251; HCT-15; NCI/ADR-RES; UACC-62; DU-145; K562; OVCAR-4; NCI-H460; Hs-578T; OVCAR-8; 786-0; BT-549; OVCAR-5; SF-268.
Assay in all cases: NCI-60 cell line screen, 48 h

The structures appear in SMILES notation.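 Each compound was tested at five concentrations against cells in 96-well plates for 48 hours. Abbreviation: GI50, concentration required for 50% inhibition of growth.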 Calls of active or inactive are those of the source. No stated cut-off is given here; in the data, active = GI50 up to about 1.1 µM and inactive = higher. Where a SMILES comes first, the peptide text is derived from it. [ ]: non-standard residue; d: D form. Aoe = N[C@@H](CCCCCC(=O)[C@@H]1CO1)C(=O)O

Regarding `COc1cc2ccc(/C=C\[N+](=O)[O-])cc2cc1OC`, the GI50 was 2.65 µM (inactive) in the test with M14; 2.83 µM (inactive) in the test on HOP-62; 4.07 µM (inactive) with COLO 205; 1.79 µM (inactive) with LOX IMVI; 1.67 µM (inactive) in the test with RPMI-8226; 2.65 µM (inactive) in the test on U-251. Moreover, the GI50 with HCT-15 is 3.21 µM; with NCI/ADR-RES, 6.43 µM (inactive); in the test with UACC-62, 5.15 µM (inactive); with DU-145, 2.16 µM (inactive); with K562, 2.39 µM (inactive); in the test with OVCAR-4, 3.04 µM (inactive). The GI50 with NCI-H460 was 15.7 µM (inactive); in the test on Hs-578T, 7.69 µM (inactive); in the test with OVCAR-8, 3.12 µM (inactive); with 786-0, 1.68 µM (inactive); in the test with BT-549, 2.32 µM (inactive); in the test on OVCAR-5, 13.1 µM (inactive). Besides, the GI50 with SF-268 was 3.36 µM (inactive).

Consider `O=C1N[C@@H](Cc2ccccc2)C(=O)N2CCC[C@@H]2C(=O)N[C@@H](CCCCCC(=O)[C@@H]2CO2)C(=O)N[C@H]1Cc1ccccc1` [TRAPOXIN B] (cyclo(FF[dP][Aoe])), for which the GI50 is 0.000597 µM (active) with M14; < 0.000212 µM (active) in the test with HOP-62; 0.000778 µM (active) with COLO 205; 0.000472 µM (active) in the test on LOX IMVI; 0.000332 µM (active) with RPMI-8226; 0.0027 µM (active) in the test with U-251. The GI50 in the test with HCT-15 was 0.0432 µM; in the test with NCI/ADR-RES, 0.0475 µM (active); in the test on UACC-62 it was 0.000435 µM (active); in the test with DU-145, 0.00136 µM (active); in the test with K562, < 0.000212 µM (active); in the test on OVCAR-4, 0.221 µM (active). Moreover, the GI50 with NCI-H460 is 0.011 µM (active); in the test on Hs-578T it was 0.000685 µM (active); with OVCAR-8 it was < 0.000212 µM (active); with 786-0 it was 0.00294 µM (active); in the test on BT-549, 0.389 µM (active); with OVCAR-5, 0.00197 µM (active). In the test on SF-268, the GI50 was 0.0119 µM (active).

As to `CCNC(=O)Cc1nc2c(N)ncnc2n1C1OC(CO)C(O)C1O` (stereo unspecified), the GI50 was > 100 µM (inactive) in the test with M14; > 100 µM (inactive) in the test with HOP-62; 74 µM (inactive) in the test with COLO 205; > 100 µM (inactive) in the test on LOX IMVI; > 100 µM (inactive) in the test on RPMI-8226; > 100 µM (inactive) in the test on U-251. The GI50 in the test on HCT-15 was greater than 100 µM; in the test with NCI/ADR-RES, > 100 µM (inactive); with UACC-62 it was > 100 µM (inactive); in the test on DU-145 it was > 100 µM (inactive); in the test with K562, > 100 µM (inactive); in the test with OVCAR-4, 23.5 µM (inactive). Also, the GI50 with NCI-H460, in the test with Hs-578T, with OVCAR-8, in the test with 786-0, in the test on BT-549 and with SF-268 was > 100 µM (inactive) in each case.

On to `O=C1c2cc(I)ccc2N2CCN=C2N1Cc1ccccc1`, for which the GI50 is > 100 µM (inactive) in the test with M14; > 100 µM (inactive) in the test with HOP-62; > 100 µM (inactive) in the test on COLO 205; > 100 µM (inactive) in the test with LOX IMVI; 92.7 µM (inactive) in the test with RPMI-8226; 49.5 µM (inactive) with U-251. In addition, the GI50 in the test on HCT-15 was greater than 100 µM; with NCI/ADR-RES, 70.8 µM (inactive); in the test on DU-145, > 100 µM (inactive); in the test on K562, > 100 µM (inactive); with OVCAR-4 it was > 100 µM (inactive); in the test with NCI-H460, > 100 µM (inactive). Further, the GI50 in the test with Hs-578T is 72.1 µM (inactive); in the test with OVCAR-8 it was 55 µM (inactive); in the test with 786-0 it was 96.6 µM (inactive); in the test on BT-549, 49.9 µM (inactive); with OVCAR-5, > 100 µM (inactive); in the test on SF-268 it was > 100 µM (inactive).

In the case of `O=c1cc(N2CCCC2)[nH]c(=O)n1-c1cccc(Cl)c1`, the GI50 in the test with M14, with HOP-62, in the test with COLO 205, with LOX IMVI, with RPMI-8226 and with U-251 was > 100 µM (inactive) throughout. For the same compound, the GI50 with HCT-15 was greater than 100 µM; in the test on NCI/ADR-RES, > 100 µM (inactive); with UACC-62 it was > 100 µM (inactive); with DU-145, > 100 µM (inactive); in the test with K562, > 100 µM (inactive); in the test with OVCAR-4, > 100 µM (inactive). Moreover, the GI50 in the test on NCI-H460, in the test on Hs-578T, in the test with OVCAR-8, with 786-0, in the test with BT-549 and in the test with OVCAR-5 was > 100 µM (inactive) throughout. The GI50 with SF-268 is > 100 µM (inactive).

As for `CC(=O)N1C(Nc2ccccn2)CCN1c1ccccc1` (stereo unspecified), the GI50 with M14 was > 10 µM (inactive); with HOP-62, > 10 µM (inactive); with COLO 205 it was > 10 µM (inactive); with LOX IMVI, > 10 µM (inactive); in the test with RPMI-8226, > 10 µM (inactive); in the test with HCT-15 it was greater than 10 µM. Moreover, the GI50 with NCI/ADR-RES, with DU-145, with K562, in the test on OVCAR-4, in the test on NCI-H460 and in the test with Hs-578T was > 10 µM (inactive) in each case. Besides, the GI50 in the test with OVCAR-8, with 786-0, in the test on BT-549, in the test on OVCAR-5 and in the test with SF-268 was > 10 µM (inactive) each time.

`COC(=O)/C=C(\C(=O)OC)C1C(=O)Oc2c(C)c(=O)c3ccccc3n21` (stereo unspecified): the GI50 in the test on M14, in the test with HOP-62, in the test with COLO 205, in the test with LOX IMVI, in the test with RPMI-8226 and in the test on U-251 was > 100 µM (inactive) throughout. Further, the GI50 in the test with HCT-15 was greater than 100 µM; with NCI/ADR-RES it was > 100 µM (inactive); in the test with UACC-62 it was > 100 µM (inactive); with DU-145 it was > 100 µM (inactive); in the test with K562, > 100 µM (inactive); with OVCAR-4 it was > 100 µM (inactive). Also, the GI50 in the test on NCI-H460, with Hs-578T, with OVCAR-8, with 786-0, in the test with BT-549 and with SF-268 was > 100 µM (inactive) in each case.

As for `COC1OC(CBr)C(OC(c2ccccc2)(c2ccccc2)c2ccccc2)C(OC(c2ccccc2)(c2ccccc2)c2ccccc2)C1OC(c1ccccc1)(c1ccccc1)c1ccccc1` (stereo unspecified), the GI50 was 51.8 µM (inactive) with M14; 25.2 µM (inactive) in the test with HOP-62; > 100 µM (inactive) in the test on COLO 205; > 100 µM (inactive) in the test with LOX IMVI; 65.3 µM (inactive) in the test with RPMI-8226; greater than 100 µM in the test with HCT-15. Also, the GI50 in the test on NCI/ADR-RES is 51.6 µM (inactive); in the test with UACC-62 it was > 100 µM (inactive); in the test on DU-145 it was 76.2 µM (inactive); with K562 it was > 100 µM (inactive); in the test with OVCAR-4, 18.3 µM (inactive); in the test on NCI-H460, 46.1 µM (inactive). The GI50 is 34.9 µM (inactive) with Hs-578T; 27.1 µM (inactive) with OVCAR-8; 19.4 µM (inactive) in the test with 786-0; 56.9 µM (inactive) with BT-549; 41 µM (inactive) in the test on OVCAR-5; 63.5 µM (inactive) with SF-268.
